Test results taken from patent US20250019371A1, “SMALL-MOLECULAR INHIBITORS FOR THE BETA-CATENIN/ B-CELL LYMPHOMA 9 PROTEIN-PROTEIN INTERACTION” (H. LEE MOFFITT CANCER CENTER AND RESEARCH INSTITUTE, INC., priority 2021, published 2025).

Assays:
[1] = test system: MDA-MB-468; test: MTS cell viability assay, MDA-MB-468; type: cell-based; settings: Homo sapiens, 72 h, Wnt/β-catenin hyperactive, mean ± SD (n = 3)
Method: (§1) MTS Cell Growth Inhibition Experiments. Colorectal cancer cells (SW480 and HCT116) and triple negative breast cancer cells (MDA-MB-231 and MDA-MB-468) were seeded in 96-well plates at 5×10^3 cells/well in DMEM with 10% FCS, maintained overnight at 37° C., and incubated with the tested compounds at various concentrations. Human mammary epithelial cell MCF10A were seeded in 96-well plates at 1×10^4 cells/well in MEGM (CC-3150, Lonza) with 100 ng/mL cholera toxin, maintained overnight at 37° C., and incubated with the tested compounds at various concentrations. Cell viability was monitored after 72 h using a freshly prepared mixture of 1 part phenazine methosulfate (PMS, Sigma) solution (0.92 mg/mL) and 19 parts 3-(4,5-dimethylthiazol-2-yl)-5-(3-carboxymethoxyphenyl)-2-(4-sulfophenyl)-2H-tetrazolium (MTS, Promega) solution (2 mg/mL). Cells were incubated in 10 μL of this solution at 37° C. for 3 h, and A490 was measured. […] Experiments were performed in triplicate.

[2] = test system: SW480; test: MTS cell viability assay, SW480; type: cell-based; settings: Homo sapiens, 72 h, Wnt/β-catenin hyperactive, mean ± SD (n = 3)
Method: as §1

CC(C)(Oc1cccc(N2CCC[C@H](C(=O)N(Cc3ccc(-c4cccs4)cc3)C3CC3)C2)c1)C(=O)NS(=O)(=O)c1ccc(C#N)cc1 [Compound 30, (S)-((4-Cyanophenyl)sulfonyl) (2-(3-(3-(cyclopropyl(4-(thiophen-2-yl)benzyl)carbamoyl)piperidin-1-yl)phenoxy)-2-methylpropanoyl)amide] was tested, and the IC50 [1] was 17.8 ± 1.01 µM and the IC50 [2] was 16.3 ± 2.04 µM.
